Reference: patent US20130072474A1, “TREATMENT OF DEMENTIA OF ALZHEIMER'S TYPE WITH MASITINIB” (AB SCIENCE, priority 2010, published 2013)

Experiments:
[1] = system: patients suffering from mild to moderate dementia of Alzheimer's type; experiment: Phase 2 study, ADAS-Cog (cognitive function); assay type: in vivo, human; design: key to ADAS-Cog absolute changes, Mean ± Std / ADAS-Cog absolute changes, Median: change in ADAS-Cog score (0-70 scale; higher = greater cognitive impairment); conditions: for ADAS-Cog No change, rate of patients / ADAS-Cog Response (Decrease >=4), rate of patients / ADAS-Cog Response without deterioration (in ADCS-ADL and CIBIC-plus), rate of patients / ADAS-Cog Worsening (Increase >=4), rate of patients / ADAS-Cog absolute changes, Mean ± Std / ADAS-Cog absolute changes, Median: ITT population
Text: (§1) A multicenter, randomized, double-blind, placebo-controlled, parallel-group phase 2 study evaluating the activity of masitinib given orally for 24 weeks has been performed in patients suffering from mild to moderate dementia of Alzheimer's type (protocol period completed, extension ongoing).
(§2) Patients: Patients enrolled in this study had dementia of Alzheimer's type (according to DSM IV criteria), probable Alzheimer's disease according to NINCDS-ADRDA criteria, MMSE≧12 and ≦26, and CDR of 1 or 2. […] Exclusion criteria included inadequate organ function (defined via blood test levels), dementia due to any other causes, uncontrolled depression, psychosis, delusions or delirium.
(§3) Treatment: In addition to a stable dose of acetylcholinesterase inhibitors and/or memantine, patients received masitinib or placebo, supplied as 100 and 200 mg tablets, per os for 24 weeks. Patients received masitinib or placebo initially at a daily total dose of 3 mg/kg or 6 mg/kg, administered twice daily with meals. Dose could be increased or decreased by 1.5 mg/kg/day depending on efficacy and toxicity assessments. Five patients were allocated to each masitinib dose for every three placebo patients. Treatment with any registered or putative cognitive enhancer or disease modifier (other than donepezil, galantamine, rivastigmine or memantine), or any investigational therapies was not allowed.
ADAS-Cog: Alzheimer's Disease Assessment Scale, a cognitive sub-scale which examines selected aspects of cognitive performance including elements of memory, orientation, attention, reasoning, language and praxis. The ADAS-Cog scoring range is from 0 to 70, with higher scores indicating greater cognitive impairment.
(§4) Statistical analyses: Efficacy was analyzed in the intent-to-treat (ITT) (all randomized patients, according to group of randomization) and per protocol (PP) (all patients without a major protocol deviation) populations. […] Efficacy criteria were analyzed using descriptive statistics, numbers and rates for categorical and discontinuous variables, parametric and non-parametric distribution elements for continuous variables.
(§5) Results are presented for the ITT population in the OC dataset (with LOCF for Centre #21 at Week 24).

[2] = system: patients suffering from mild to moderate dementia of Alzheimer's type; experiment: Phase 2 study, ADCS-ADL (daily living activities); assay type: in vivo, human; conditions: ITT population
Text: as §1, §2, §3
ADCS-ADL: Alzheimer's Disease Cooperative Study-Activities of Daily Living, which measures a wide spectrum of dementia severity. Patients/caregivers are asked 23 questions about their daily activities. The maximum possible score is 78, with a higher score indicating better function
as §4, §5

[3] = system: patients suffering from mild to moderate dementia of Alzheimer's type; experiment: Phase 2 study, MMSE; assay type: in vivo, human; conditions: for MMSE score, absolute change relative to baseline, Mean ± Std / MMSE score, absolute change relative to baseline, Median: Observed Cases, ITT population
Text: as §1, §2, §3
MMSE: assesses six items: orientation, learning, attention, word recall, language use and comprehension, and constructive praxis. A global score from 0 to 30 was computed, with higher scores indicating greater cognitive function (Folstein et al., 1975).
as §4, §5

ABL = ABL (Homo sapiens, UniProt P00519); conditions: at therapeutic doses of masitinib; cited from earlier work
[4] = W 12, Observed Cases, listed as AB1010
[5] = W 24 LOCF center 21, Observed Cases
[6] = W 24 LOCF center 21, observed cases, listed as AB1010

Chain of ABL (P00519 whole entry): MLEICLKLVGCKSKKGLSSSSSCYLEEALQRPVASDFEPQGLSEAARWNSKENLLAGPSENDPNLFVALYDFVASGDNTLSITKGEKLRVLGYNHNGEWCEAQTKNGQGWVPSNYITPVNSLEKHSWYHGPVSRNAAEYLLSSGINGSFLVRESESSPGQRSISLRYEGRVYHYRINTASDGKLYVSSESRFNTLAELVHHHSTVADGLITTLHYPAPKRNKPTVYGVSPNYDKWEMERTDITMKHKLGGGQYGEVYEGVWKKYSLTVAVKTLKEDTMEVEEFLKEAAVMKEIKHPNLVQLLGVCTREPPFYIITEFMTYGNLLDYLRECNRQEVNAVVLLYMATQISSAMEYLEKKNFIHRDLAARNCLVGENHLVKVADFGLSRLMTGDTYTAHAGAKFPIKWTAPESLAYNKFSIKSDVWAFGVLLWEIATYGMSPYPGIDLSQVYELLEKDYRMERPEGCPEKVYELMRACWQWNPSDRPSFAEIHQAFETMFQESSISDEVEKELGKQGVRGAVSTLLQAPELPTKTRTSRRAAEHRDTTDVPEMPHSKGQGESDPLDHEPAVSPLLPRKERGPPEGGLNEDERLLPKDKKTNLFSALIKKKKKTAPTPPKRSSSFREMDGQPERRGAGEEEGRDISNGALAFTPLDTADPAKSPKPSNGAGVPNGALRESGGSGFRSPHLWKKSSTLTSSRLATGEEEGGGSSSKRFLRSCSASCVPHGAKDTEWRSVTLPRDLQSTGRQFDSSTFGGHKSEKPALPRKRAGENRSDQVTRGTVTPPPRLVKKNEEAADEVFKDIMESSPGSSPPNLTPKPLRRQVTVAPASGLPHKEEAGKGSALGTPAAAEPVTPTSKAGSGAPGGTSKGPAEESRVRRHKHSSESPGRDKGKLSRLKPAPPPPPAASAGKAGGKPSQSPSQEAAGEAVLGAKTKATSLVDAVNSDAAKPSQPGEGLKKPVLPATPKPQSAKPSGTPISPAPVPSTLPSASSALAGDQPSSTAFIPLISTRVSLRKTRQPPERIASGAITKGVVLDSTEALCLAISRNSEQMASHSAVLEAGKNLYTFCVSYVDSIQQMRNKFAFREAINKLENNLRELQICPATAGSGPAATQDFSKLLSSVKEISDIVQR

With `Cc1ccc(NC(=O)c2ccc(CN3CCN(C)CC3)cc2)cc1Nc1nc(-c2cccnc2)cs1` [masitinib, 4-(4-methylpiperazin-1-ylmethyl)-N-[4-methyl-3-(4-pyridin-3ylthiazol-2-ylamino)phenyl]benzamide] the “ADAS-Cog No change, rate of patients” value ([1]; W 4, Observed Cases) was 17 (70.8%), the “ADAS-Cog Response (Decrease >=4), rate of patients” value ([1]; W 4, Observed Cases) was 3 (12.5%) and the “ADAS-Cog Response without deterioration (in ADCS-ADL and CIBIC-plus), rate of patients” value (from here on “ADAS-Cog Response without deterioration”) ([1]; W 4, Observed Cases) was 2 (9.1%). The “ADAS-Cog Worsening (Increase >=4), rate of patients” value ([1]; W 4, Observed Cases) was 4 (16.7%), the “ADAS-Cog absolute changes, Mean ± Std” value ([1]; W 4, Observed Cases) was −0.0 ± 6.1 and the “ADAS-Cog absolute changes, Median” value ([1]; W 4, Observed Cases) was −1.5. The “ADAS-Cog No change, rate of patients” value ([1]; W 8, Observed Cases) was 4 (44.4%), the “ADAS-Cog Response (Decrease >=4), rate of patients” value ([1]; W 8, Observed Cases) was 4 (44.4%) and the “ADAS-Cog Response without deterioration” value ([1]; W 8, Observed Cases) was 2 (25.0%). The “ADAS-Cog Worsening (Increase >=4), rate of patients” value ([1]; W 8, Observed Cases) was 1 (11.1%), the “ADAS-Cog absolute changes, Mean ± Std” value ([1]; W 8, Observed Cases) was −0.8 ± 8.1 and the “ADAS-Cog absolute changes, Median” value ([1]; W 8, Observed Cases) was −2.8. For the same molecule, the “ADAS-Cog No change, rate of patients” value ([1]; W 12, Observed Cases) was 9 (52.9%), the “ADAS-Cog Response (Decrease >=4), rate of patients” value ([1]; W 12, Observed Cases) was 7 (41.2%) and the “ADAS-Cog Response without deterioration” value ([1]; W 12, Observed Cases) was 25%. The “ADAS-Cog Worsening (Increase >=4), rate of patients” value ([1]; W 12, Observed Cases) was 1 (5.9%), the “ADAS-Cog absolute changes, Mean ± Std” value ([1]; W 12, Observed Cases) was −2.6 ± 3.6 and the “ADAS-Cog absolute changes, Median” value ([1]; W 12, Observed Cases) was −2.4. The “ADAS-Cog Response without deterioration” value [1, 4] was 4 (25.0%), the “ADAS-Cog No change, rate of patients” value ([1]; W 24, Observed Cases) was 5 (55.6%) and the “ADAS-Cog Response (Decrease >=4), rate of patients” value ([1]; W 24, Observed Cases) was 3 (33.3%). The “ADAS-Cog Response without deterioration” value ([1]; W 24, Observed Cases) was 2 (25.0%), the “ADAS-Cog Worsening (Increase >=4), rate of patients” value ([1]; W 24, Observed Cases) was 1 (11.1%) and the “ADAS-Cog absolute changes, Mean ± Std” value ([1]; W 24, Observed Cases) was −0.7 ± 7.8. The “ADAS-Cog absolute changes, Median” value ([1]; W 24, Observed Cases) was −0.3, the “ADAS-Cog No change, rate of patients” value [1, 5] was 9 (56.3%) and the “ADAS-Cog Response (Decrease >=4), rate of patients” value [1, 5] was 38%. For the same molecule, the “ADAS-Cog Response without deterioration” value [1, 5] was 5 (33.3%), the “ADAS-Cog Worsening (Increase >=4), rate of patients” value [1, 5] was 1 (6.3%) and the “ADAS-Cog absolute changes, Mean ± Std” value [1, 5] was −1.8 ± 6.1. The “ADAS-Cog absolute changes, Median” value [1, 5] was −2.5, the “ADAS-Cog Response (Decrease >=4), rate of patients” value [1, 6] was 6 (37.5%) and the “ADAS-Cog score, mean decrease (i.e. improvement)” value ([1]; Week 12, ITT) was 2.6±3.6 units. For the same molecule, the “ADAS-Cog score, mean decrease” value ([1]; week 24, ITT) was 0.7±7.8 units, the “ADCS-ADL No change, rate of patients” value ([2]; W 4, Observed Cases) was 5 (22.7%) and the “ADCS-ADL Response (Increase >=3), rate of patients” value ([2]; W 4, Observed Cases) was 10 (45.5%). The “ADCS-ADL Worsening (Decrease <0), rate of patients” value ([2]; W 4, Observed Cases) was 7 (31.8%), the “ADCS-ADL absolute change relative to baseline, Mean ± Std” value ([2]; W 4, Observed Cases) was 1.8 ± 6.1 and the “ADCS-ADL absolute change relative to baseline, Median” value ([2]; W 4, Observed Cases) was 1.5. For the same molecule, the “ADCS-ADL No change, rate of patients” value ([2]; W 8, Observed Cases) was 5 (27.8%), the “ADCS-ADL Response (Increase >=3), rate of patients” value ([2]; W 8, Observed Cases) was 7 (38.9%) and the “ADCS-ADL Worsening (Decrease <0), rate of patients” value ([2]; W 8, Observed Cases) was 6 (33.3%). The “ADCS-ADL absolute change relative to baseline, Mean ± Std” value ([2]; W 8, Observed Cases) was 0.3 ± 7.0, the “ADCS-ADL absolute change relative to baseline, Median” value ([2]; W 8, Observed Cases) was 1.0 and the “ADCS-ADL No change, rate of patients” value ([2]; W 12, Observed Cases) was 3 (18.8%). For the same molecule, the “ADCS-ADL Response (Increase >=3), rate of patients” value ([2]; W 12, Observed Cases) was 8 (50.0%), the “ADCS-ADL Worsening (Decrease <0), rate of patients” value ([2]; W 12, Observed Cases) was 31% and the “ADCS-ADL absolute change relative to baseline, Mean ± Std” value ([2]; W 12, Observed Cases) was 6.9±10.9. The “ADCS-ADL absolute change relative to baseline, Median” value ([2]; W 12, Observed Cases) was 3.0, the “ADCS-ADL Worsening (Decrease <0), rate of patients” value [2, 4] was 5 (31.3%) and the “ADCS-ADL absolute change relative to baseline, Mean ± Std” value [2, 4] was 6.9 ± 10.9. The “ADCS-ADL No change, rate of patients” value ([2]; W 24, Observed Cases) was 0 (0.0%), the “ADCS-ADL Response (Increase >=3), rate of patients” value ([2]; W 24, Observed Cases) was 5 (62.5%) and the “ADCS-ADL Worsening (Decrease <0), rate of patients” value ([2]; W 24, Observed Cases) was 3 (37.5%). For the same molecule, the “ADCS-ADL absolute change relative to baseline, Mean ± Std” value ([2]; W 24, Observed Cases) was −1.4 ± 15.3, the “ADCS-ADL absolute change relative to baseline, Median” value ([2]; W 24, Observed Cases) was 4.0 and the “ADCS-ADL No change, rate of patients” value [2, 5] was 2 (13.3%). The “ADCS-ADL Response (Increase >=3), rate of patients” value [2, 5] was 60%, the “ADCS-ADL Worsening (Decrease <0), rate of patients” value [2, 5] was 27% and the “ADCS-ADL absolute change relative to baseline, Mean ± Std” value [2, 5] was 5.5±15.8. The “ADCS-ADL absolute change relative to baseline, Median” value [2, 5] was 4.0, the “ADCS-ADL Response (Increase >=3), rate of patients” value [2, 6] was 9 (60.0%) and the “ADCS-ADL Worsening (Decrease <0), rate of patients” value [2, 6] was 4 (26.7%). The “ADCS-ADL absolute change relative to baseline, Mean ± Std” value [2, 6] was 5.5 ± 15.8, the “MMSE scores in masitinib-treated patients over time” value ([3]; 24 weeks, placebo-treated patients deteriorated (Week 12 p=0.047, Week 24 p=0.031)) was “remained stable over time” and the “MMSE score, absolute change relative to baseline, Mean ± Std” value ([3]; W 4) was 0.2 ± 2.0. The “MMSE score, absolute change relative to baseline, Median” value ([3]; W 4) was −0.5, the “MMSE score, absolute change relative to baseline, Mean ± Std” value ([3]; W 8) was −0.6 ± 2.8 and the “MMSE score, absolute change relative to baseline, Median” value ([3]; W 8) was 0.0. For the same molecule, the “MMSE score, absolute change relative to baseline, Mean ± Std” value ([3]; W 12) was 0.1 ± 2.5, the “MMSE score, absolute change relative to baseline, Median” value ([3]; W 12) was 0.0 and the “MMSE score, absolute change relative to baseline, Mean ± Std” value ([3]; W 24) was −0.4 ± 5.6. For the same molecule, the “MMSE score, absolute change relative to baseline, Median” value ([3]; W 24) was 1.0, the “MMSE score, absolute change relative to baseline, Mean ± Std” value ([3]; W 24 LOCF center 21) was −0.1 ± 4.3 and the “MMSE score, absolute change relative to baseline, Median” value ([3]; W 24 LOCF center 21) was 0.0. For the same molecule, the “inhibition of ABL” value (ABL) was “not inhibited at therapeutic doses”.
